Data: patent US3954793A, “1-(2-Propynyl)-1 H-indazole compounds” (priority 1973, dated 1976)
Several values for one entry are separate records, joined by “and”; a condition that tells them apart may be missing. Equal entries are not always repeated.

Key:
[1] = tested on: Wilson strain house flies; assay type: in vivo, Wilson strain (susceptible)
Protocol: The required solutions of the insecticide and of the synergist compound were prepared in acetone at a concentration of 1 milligram per milliliter. One-pint wide mouth glass jars were coated with the appropriate insecticide-synergist combination by rolling the jars containing aliquots of the appropriate solutions diluted to three milliliters with acetone to deposit, by evaporation, a film of the test materials. The flies were transferred under carbon dioxide anesthesia and held in the jar at room temperature. Perforated aluminum foil was used to cover the jars and to hold cotton saturated with 10% sugar solution. Counts were made at intervals, but the recorded mortality was based on 24-hour kill, rather than knockdown. All prostrate non-moving flies were considered dead. A determination was then made of the contact synergistic ratio [SR], which is the ratio of the LC50 of insecticide alone to the LC50 of the insecticide when applied together with the synergist. The LC50 of the insecticide was estimated from a log-probit plot of percent kill versus dosage. […] The LC50 of the combination of insecticide and synergist was determined at a synergist to insecticide parts by weight ratio of five to one.

[2] = tested on: polyvalent resistant (CH strain) houseflies; assay: whole plant or invertebrate; assay type: in vivo
Protocol: The effect of O-(2-propynyl) oximes with Dimetilan and with GS 13798 was obtained from tests on polyvalent resistant (CH strain) houseflies that had been chilled and to the dorsal region of which was applied an acetone solution of synergist and insecticide at a ratio of two to one. Duplicate tests were performed using 10 four to five-day old female houseflies per test. After dosage, the flies were put in a plastic petri dish with cotton soaked in a sugar-water solution. These doses of insecticide used without synergist caused 10-40% mortality.
In Table IX, and in the tables following it, the doses of topically applied insecticides and of synergists unless otherwise noted are expressed as micrograms per fly (μg/fly).
The effect of compounds II-C, II-D and II-E with Dimetilan and GS 13798 was determined, following the procedure of Example 5, from tests on polyvalent resistant (CH strain) houseflies. These doses of insecticide used without synergist caused 10-40% mortality.
The synergistic effect with GS 13005 of compounds I-A, I-B, I-D, I-E, I-F, I-G and I-I was determined from topical application tests to IN/WHO strain, Rutgers A strain and polyvalent CH strain houseflies using the procedures of Example 5. The percent kills of the IN/WHO strain flies after 24 hours are shown in Table XXVIII; of the Rutgers A strain, in Table XXIX; and of the polyvalent CH strain, in Table XXX. The doses of insecticide alone to the CH strain files caused 10-40% mortality.
The synergistic effect with Diazinon and GS 13005 of various of the benzyl 2-propynyl ethers identified in Tables II and IIa was determined by topical application tests on IN/WHO strain, and Rutgers A strain and polyvalent, resistant, CH strain houseflies using the procedures of Example 5. The percent kills after 24 hours of IN/WHO strain flies are shown in Table XXXI; of Rutgers A strain flies, in Table XXXII; and of CH strain flies, in Table XXXIII. The doses of insecticide alone to the CH strain flies caused 10-40% mortality.
The synergistic effect with pyrethrum of various synergist compounds was determined by topical application tests on polyvalent, resistant CH strain houseflies following the procedure of Example 5. Application of the insecticide alone caused 10-40% mortality.

houseflies = assay: topical application with Diazinon, Table XXVII (strain not given); assay type: in vivo
[3] = tested on: Swiss albino, white male mice; assay: acute toxicity and synergism of acute toxicity in mice; assay type: in vivo; conditions: GS 13005 (71 mg/kg) in 0.1 ml corn oil
How it was run: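 Male Swiss albino mice (23 to 27 g, five to six weeks), eight per dose, dosed intraperitoneally in corn oil: dimetilan alone at 4 to 32 mg per kg, synergists alone at 1000 mg/kg with deaths counted at 72 hours. For synergism, synergist given 1 hour before insecticide, lethality observed for at least 6 hours.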

[4] = tested on: German male cockroaches (Blatella Germanicus); assay: topical application to thorax, 24 hour mortality of German male cockroaches; assay type: in vivo; conditions: cockroaches
Protocol: The synergistic effect with mobam of synergist compounds I-B, II-H, II-K and IV-C is further illustrated by the 24 hour mortality data of German male cockroaches (Blatella Germanicus) shown in Table XXXX. The synergists and insecticide were diluted in acetone and applied in small droplets to the thorax of the insect. These doses of synergist alone gave zero percent insect mortality.
The synergistic effect with GS 13005 of compounds I-B, II-H, II-K, II-P, II-Q, II-R and IV-C is illustrated by the 24 hour mortality of German male cockroaches shown in Table XXXXI. These doses of synergist alone caused zero percent insect mortality.

[5] = tested on: IN/WHO strain house flies; assay: topical application, percent kill after 24 hours, susceptible IN/WHO strain; assay type: in vivo, female)
How it was run: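 Insecticide plus synergist in acetone, 1.0 μl applied to the thorax of CO2-anesthetized 3-to-5-day-old female IN/WHO house flies, doses in μg/fly. Flies held 10 per dish, 3-5 dishes per treatment, with skim milk. Percent mortality scored after 24 h.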

[6] = tested on: Rutgers A strain house flies; assay: topical application, percent kill after 24 hours, resistant Rutgers A strain; assay type: in vivo, female)
How it was run: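 Synergist plus mobam, Diazinon or GS 13005 dissolved in acetone, applied as 1.0 μl to the thorax of CO2-anaesthetised 3-to-5 day old female Rutgers A (resistant) house flies; doses in μg/fly. Flies held 10 per dish, 3-5 dishes per treatment, with skim milk; mortality scored at 24 h.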

SMILES: C#CCON=Cc1ccc(OC)c(OC)c1 [I-A]
- Contact Synergistic Ratio, Pyrolan ([1]; LC50 pyrolan alone / LC50 with synergist, synergist to insecticide 5:1 by weight): 30
- Contact Synergistic Ratio, Carbaryl ([1]; in vivo): 200
- percent kill after 24 hours, with Dimetilan ([2]; Dimetilan 2 + synergist 4 μg/fly, CH strain): 100%
- percent kill after 24 hours, with GS 13005 ([2]; GS 13005 1 + synergist 2 μg/fly, CH strain): 45%
- mortality at 10 µg/fly ([2]; Musca domestica, topical, 24 h, insecticide 0, synergist 10 μg/fly, CH strain, read-out: percent kill after 24 hours, synergist alone): 0%
- percent kill after 24 hours, with pyrethrum ([2]; Pyrethrum 2 + synergist 4 μg/fly, CH strain): 15%
- percent kill after 24 hours, synergist alone ([2]; insecticide 0, synergist 10 μg/fly, CH strain): 0%
- percent kill after 24 hours, with Diazinon (Table XXVII) (houseflies; Diazinon 5 + synergist 10 μg/fly): 45%
- mortality at 10 µg/fly (houseflies; Musca domestica, topical, 24 h, Diazinon 0, synergist 10 μg/fly, read-out: percent kill after 24 hours, synergist alone (Table XXVII)): 0%

SMILES: COc1nn(CSP(=S)(OC)OC)c(=O)s1 [GS 13005, S-((2-methoxy-5-oxo-Δ^2-1,3,4-thiadiazolin-4-yl)methyl) O,O-dimethyl phosphorodithioate, reference compound]
- number of mice dead, control (GS 13005 alone) [3]: 5
- 24 hour mortality, GS 13005 alone ([4]; GS 13005 dose 0.08, synergist 0, 1440 min): 15% and 23% and 10%
- mortality, insecticide used without synergist ([2]; house fly, in vivo, topical or ocular, 24 h): 10-40%
- percent kill after 24 hours, GS 13005 alone ([5]; GS 13005 0.05, synergist 0 μg/fly): 0%
- percent kill after 24 hours, GS 13005 alone ([5]; GS 13005 0.10, synergist 0 μg/fly, 1440 min): 19% and 16% and 12%

SMILES: CNC(=O)Oc1cccc2sccc12 [Mobam, 4-benzo(b) thienyl-N-methylcarbamate, reference compound]
- 24 hour mortality, Mobam alone ([4]; Mobam dose 0.12, synergist 0): 10%
- 24 hour mortality, Mobam alone ([4]; Mobam dose 0.16, synergist 0): 30%
- percent kill after 24 hours, Mobam alone ([6]; Mobam 0.15, synergist 0 μg/fly): 0%
- percent kill after 24 hours, Mobam alone ([6]; Mobam 0.30, synergist 0 μg/fly): 0%
- percent kill after 24 hours, Mobam alone ([6]; Mobam 0.40, synergist 0 μg/fly): 7%
- percent kill after 24 hours, Mobam alone ([6]; Mobam 0.60, synergist 0 μg/fly): 4%
- percent mortality 24 hours, Mobam alone ([5]; Mobam 0.13 μg/fly alone): 0%
- percent mortality 24 hours, Mobam alone ([5]; Mobam 0.25 μg/fly alone, 1440 min): 27%
- percent mortality 24 hours, Mobam alone ([5]; Mobam 0.50 μg/fly alone, 1440 min): 83%
- percent mortality 24 hours, Mobam alone ([5]; Mobam 1.0 μg/fly alone, 1440 min): 93%
- percent kill after 24 hours, Mobam alone ([5]; Mobam 0.05, synergist 0 μg/fly): 0%
- percent kill after 24 hours, Mobam alone ([5]; Mobam 0.10, synergist 0 μg/fly): zero
- percent kill after 24 hours, Mobam alone ([5]; Mobam 0.10, synergist 0 μg/fly, 1440 min): 0%
- percent kill after 24 hours, Mobam alone ([5]; Mobam 0.20, synergist 0 μg/fly, 1440 min): 6% and 2% and 9%
